IC50 data for 24 compounds are collected here from patent publication US10710994B2, “Oxadiazole transient receptor potential channel inhibitors” (Genentech, Inc., priority 2018, dated 2020).

The structures appear in SMILES notation. Where two headings read alike, the source gives them in different places.

The target in this test is human TRPA1 channel (Homo sapiens (Human), UniProt O75762). Kind of test: hTRPA1 CHO Ca2+ FLIPR Tetra assay: block of cinnamaldehyde induced calcium influx. The test is classed as cell-based. Particulars: CHO cells expressing TRPA1, Hill coefficient fixed to 1.5. In a few lines: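 TRPA1-expressing CHO cells loaded with calcium indicator dye (1 h 37° C, then 15 min room temperature) in HBSS/20 mM HEPES pH 7.4/0.02% BSA. IC50 from fits with fixed Hill coefficient.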
human TRPA1 channel, sequence (O75762 whole entry): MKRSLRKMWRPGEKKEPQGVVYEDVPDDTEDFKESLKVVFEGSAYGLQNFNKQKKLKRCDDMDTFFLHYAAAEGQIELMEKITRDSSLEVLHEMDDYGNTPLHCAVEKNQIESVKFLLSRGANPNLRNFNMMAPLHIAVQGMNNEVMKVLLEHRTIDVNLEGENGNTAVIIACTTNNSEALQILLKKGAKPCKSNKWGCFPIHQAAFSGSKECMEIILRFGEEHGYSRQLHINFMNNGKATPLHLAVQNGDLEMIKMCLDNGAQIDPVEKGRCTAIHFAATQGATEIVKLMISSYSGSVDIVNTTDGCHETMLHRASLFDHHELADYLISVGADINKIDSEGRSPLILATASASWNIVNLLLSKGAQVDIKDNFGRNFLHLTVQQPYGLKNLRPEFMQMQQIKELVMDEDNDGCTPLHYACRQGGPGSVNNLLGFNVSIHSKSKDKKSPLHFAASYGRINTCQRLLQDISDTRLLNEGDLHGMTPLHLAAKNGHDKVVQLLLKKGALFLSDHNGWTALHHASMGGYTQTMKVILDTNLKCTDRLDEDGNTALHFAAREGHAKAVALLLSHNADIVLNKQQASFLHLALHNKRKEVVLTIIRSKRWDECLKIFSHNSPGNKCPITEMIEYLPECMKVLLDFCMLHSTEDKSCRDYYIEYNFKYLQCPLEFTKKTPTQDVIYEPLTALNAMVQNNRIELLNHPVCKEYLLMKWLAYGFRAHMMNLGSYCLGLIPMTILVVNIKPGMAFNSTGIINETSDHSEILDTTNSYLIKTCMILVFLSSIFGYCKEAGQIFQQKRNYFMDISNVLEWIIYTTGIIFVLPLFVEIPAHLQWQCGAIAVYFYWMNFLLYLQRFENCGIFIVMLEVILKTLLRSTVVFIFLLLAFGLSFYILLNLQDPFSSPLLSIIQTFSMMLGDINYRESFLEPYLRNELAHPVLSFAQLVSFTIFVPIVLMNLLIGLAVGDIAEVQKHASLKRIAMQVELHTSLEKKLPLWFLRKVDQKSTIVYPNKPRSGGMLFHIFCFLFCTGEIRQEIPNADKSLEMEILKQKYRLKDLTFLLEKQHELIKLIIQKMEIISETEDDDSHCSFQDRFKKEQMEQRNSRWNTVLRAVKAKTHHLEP

The mark [1] stands for this setting: read-out: hTRPA1 IC50 10 min, 10 minutes incubation with compound before cinnamaldehyde (about EC80).
The mark [2] stands for this setting: read-out: hTRPA1 IC50 90 min, 90 minutes incubation with compound before cinnamaldehyde (about EC80).

For orientation: IC50 means the concentration needed to halve the response being measured. As for `Cc1ncn2nc(N)n(Cc3nc([C@@H]4CO[C@@H](c5ccc(Cl)cc5)C4)no3)c(=O)c12` [Example 84, 2-amino-3-((3-((3R,5R)-5-(4-chlorophenyl)tetra-hydrofuran-3-yl)-1,2,4-oxadiazol-5-yl)methyl)-5-methylimidazo[5,1-f] [1,2,4]triazin-4(3H)-one], the half-maximal inhibitory concentration (IC50) turned out to be 142 nM under setting [1] and 4.6 nM under setting [2].
On the same counts, the results for `Cc1ncn2nc(N)n(Cc3nc([C@@H]4CO[C@@H](c5ccc(F)cc5)C4)no3)c(=O)c12` [Example 85, 2-amino-3-((3-((3R,5R)-5-(4-fluorophenyl)tetra-hydrofuran-3-yl)-1,2,4-oxadiazol-5-yl)methyl)-5-methylimidazo[5,1-f] [1,2,4]triazin-4(3H)-one] are 15.5 nM and 6 nM.
As for `Cn1cnc2ncn(Cc3nc([C@@H]4CO[C@@H](c5ccc(S(F)(F)(F)(F)F)cc5)C4)no3)c(=O)c21` [Example 86, 7-methyl-1-((3-((3R,5R)-5-(4-(pentafluoro-l6-sulfanyl)phenyl)tetrahydro-furan-3-yl)-1,2,4-oxadiazol-5-yl)methyl)-1,7-dihydro-6H-purin-6-one], the half-maximal inhibitory concentration (IC50) under setting [1] was 1560 nM and the IC50 under setting [2] is 930 nM.
Take `Nc1ccc2c(=O)n(Cc3nc([C@@H]4CO[C@@H](c5ccc(Cl)cc5)C4)no3)ncc2n1` [Example 87, 2-amino-6-((3-((3R,5R)-5-(4-chlorophenyl)tetra-hydrofuran-3-yl)-1,2,4-oxadiazol-5-yl)methyl) pyrido[2,3-d]pyridazin-5(6H)-one]: the 50% inhibitory concentration (IC50) was 10.5 nM under setting [1] and 3.5 nM under setting [2].
Consider `CN1CCc2c(ncn(Cc3nc([C@@H]4CO[C@@H](c5ccc(Cl)cc5)C4)no3)c2=O)C1` [Example 88, 3-((3-((3R,5R)-5-(4-chlorophenyl)tetrahydro-furan-3-yl)-1,2,4-oxadiazol-5-yl)methyl)-7-methyl-5,6,7,8-tetrahydropyrido [3,4-d]pyrimidin-4(3H)-one], for which the IC50 was found to be 2720 nM under setting [1] and 450 nM under setting [2].
The like results for `Nc1nc2ncccc2c(=O)n1Cc1nc([C@@H]2CO[C@@H](c3ccc(F)cc3)C2)no1` [Example 89, 2-amino-3-((3-((3R,5R)-5-(4-fluorophenyl)tetrahydrofuran-3-yl)-1,2,4-oxadiazol-5-yl)methyl) pyrido[2,3-d]pyrimidin-4(3H)-one] were, in that order, 18.7 nM and 2.9 nM.
As for `O=c1c2ccnnc2ncn1Cc1nc([C@@H]2CO[C@@H](c3ccc(F)cc3)C2)no1` [Example 103, 6-[[3-[(3R,5R)-5-(4-fluorophenyl)tetrahydro-furan-3-yl]-1,2,4-oxadiazol-5-yl]methyl]pyrimido[4,5-c]pyridazin-5-one], the half-maximal inhibitory concentration (IC50) was 71.7 nM under setting [1] and 89 nM under setting [2].
Take `Cc1ccnc2cnn(Cc3nc([C@@H]4CO[C@@H](c5ccc(F)cc5)C4)no3)c(=O)c12` [Example 104, 6-[[3-[(3R,5R)-5-(4-fluorophenyl)tetrahydro-furan-3-yl]-1,2,4-oxadiazol-5-yl]methyl]-4-methyl-pyrido[2,3-d] pyridazin-5-one]: the IC50 turned out to be 7.2 nM under setting [1] and 6.7 nM under setting [2].
Turning to `Cc1nc2nc(C)n(C)c2c(=O)n1Cc1nc([C@@H]2CO[C@@H](c3ccc(Cl)cc3)C2)no1` [Example 109, 1-((3-((3R,5R)-5-(4-chlorophenyl)tetrahydro-furan-3-yl)-1,2,4-oxadiazol-5-yl)methyl)-2,7,8-trimethyl-1,7-dihydro-6H-purin-6-one], the half-inhibitory concentration (IC50) under setting [1] was 85 nM and the IC50 under setting [2] turned out to be 62 nM.
For the compound `[2H]c1nc2nc(C)n(Cc3nc([C@@H]4CO[C@@H](c5ccc(Cl)cc5)C4)no3)c(=O)c2n1C` [Example 110, 1-((3-((3R,5R)-5-(4-chlorophenyl)tetrahydro-furan-3-yl)-1,2,4-oxadiazol-5-yl)methyl)-2,7-dimethyl-1,7-dihydro-6H-purin-6-one-8-d], the IC50 was found to be 9.32 nM (hTRPA1 IC50 10 min, 10 minutes incubation with compound before cinnamaldehyde (about EC80)) and 3.9 nM (hTRPA1 IC50 90 min, 90 minutes incubation with compound before cinnamaldehyde (about EC80)).
As to `Cc1nc2[nH]c(=O)n(C)c2c(=O)n1Cc1nc([C@@H]2CO[C@@H](c3ccc(Cl)cc3)C2)no1` [Example 111, 1-((3-((3R,5R)-5-(4-chlorophenyl)tetrahydro-furan-3-yl)-1,2,4-oxadiazol-5-yl)methyl)-2,7-dimethyl-7,9-dihydro-1H-purine-6,8-dione], the concentration for half-maximal inhibition (IC50) is, setting by setting: under setting [1], 85.8 nM; under setting [2], 34 nM.
The like results for `Nc1nc2nccnc2n1Cc1nc([C@@H]2CO[C@@H](c3ccc(Cl)cc3)C2)no1` [Example 112, 1-((3-((3R,5R)-5-(4-chlorophenyl)tetrahydro-furan-3-yl)-1,2,4-oxadiazol-5-yl)methyl)-1H-imidazo[4,5-b] pyrazin-2-amine] were, in that order, 10.8 nM and 3.8 nM.
On the same counts, the results for `Cc1nc2nc(Cl)n(C)c2c(=O)n1Cc1nc([C@@H]2CO[C@@H](c3ccc(Cl)cc3)C2)no1` [Example 114, 8-chloro-1-((3-((3R,5R)-5-(4-chlorophenyl)tetrahydrofuran-3-yl)-1,2,4-oxadiazol-5-yl)methyl)-2,7-dimethyl-1,7-dihydro-6H-purin-6-one] are 37.8 nM and 22 nM.
In the case of `N#Cc1cnn2ncn(Cc3nc([C@@H]4CO[C@@H](c5ccc(Cl)cc5)C4)no3)c(=O)c12` [Example 115, 3-((3-((3R,5R)-5-(4-chlorophenyl)tetrahydro-furan-3-yl)-1,2,4-oxadiazol-5-yl)methyl)-4-oxo-3,4-dihydro-pyrazolo[5,1-f][1,2,4] triazine-5-carbonitrile], the IC50 by setting is: under setting [1], 94.9 nM; under setting [2], 40 nM.
The like results for `Cn1cnc2c(C(N)=O)nn(Cc3nc([C@@H]4CO[C@@H](c5ccc(Cl)cc5)C4)no3)c(=O)c21` [Example 116, 6-((3-((3R,5R)-5-(4-chlorophenyl)tetrahydro-furan-3-yl)-1,2,4-oxadiazol-5-yl)methyl)-1-methyl-7-oxo-6,7-dihydro-1H-imidazo [4,5-d]pyridazine-4-carboxamide] were, in that order, 76.5 nM and 39 nM.
On the same counts, the results for `Cc1n[nH]c2ncn(Cc3nc([C@@H]4CO[C@@H](c5ccc(Cl)cc5)C4)no3)c(=O)c12` [Example 117, 5-((3-((3R,5R)-5-(4-chlorophenyl)tetrahydro-furan-3-yl)-1,2,4-oxadiazol-5-yl)methyl)-3-methyl-1,5-dihydro-4H-pyrazolo[3,4-d] pyrimidin-4-one] are 11.3 nM and 5.9 nM.
As for `O=C1CCc2c(ncn(Cc3nc([C@@H]4CO[C@@H](c5ccc(Cl)cc5)C4)no3)c2=O)N1` [Example 118, 3-((3-((3R,5R)-5-(4-chlorophenyl)tetrahydro-furan-3-yl)-1,2,4-oxadiazol-5-yl)methyl)-5,8-dihydropyrido[2,3-d] pyrimidine-4,7(3H,6H)-dione], the IC50 by setting is: under setting [1], 96.4 nM; under setting [2], 47 nM.
As to `Nc1nc2ncccc2c(=O)n1Cc1nc([C@@H]2CO[C@@H](c3cccc(F)c3)C2)no1` [Example 119, 2-amino-3-((3-((3R,5R)-5-(3-fluorophenyl)tetrahydro-furan-3-yl)-1,2,4-oxadiazol-5-yl)methyl) pyrido[2,3-d]pyrimidin-4(3H)-one], the 50% inhibitory concentration (IC50) runs as follows: under setting [1], 31.9 nM; under setting [2], 13 nM.
Consider `Cn1cnc2nc(Cl)n(Cc3nc([C@@H]4CO[C@@H](c5ccc(Cl)cc5)C4)no3)c(=O)c21` [Example 120, 2-chloro-1-((3-((3R,5R)-5-(4-chlorophenyl)tetrahydro-furan-3-yl)-1,2,4-oxadiazol-5-yl)methyl)-7-methyl-1,7-dihydro-6H-purin-6-one], for which the half-maximal inhibitory concentration (IC50) is 29.4 nM under setting [1] and 20 nM under setting [2].
In the case of `Cn1nncc1C(=O)NCc1nc([C@@H]2CO[C@@H](c3ccc(Cl)cc3)C2)no1` [Example 121, N-((3-((3R,5R)-5-(4-chlorophenyl)tetrahydro-furan-3-yl)-1,2,4-oxadiazol-5-yl)methyl)-1-methyl-1H-1,2,3-triazole-5-carboxamide], the IC50 turned out to be 111 nM under setting [1] and 49 nM under setting [2].
Turning to `Cc1cnn2ncn(Cc3nc([C@@H]4CO[C@@H](c5ccc(C#N)cc5)C4)no3)c(=O)c12` [Example 122, 4-((2R,4R)-4-(5-((5-methyl-4-oxopyrazolo[5,1-f][1,2,4]triazin-3(4H)-yl)methyl)-1,2,4-oxadiazol-3-yl)tetrahydrofuran-2-yl)benzonitrile], the IC50 under setting [1] was found to be 75.8 nM and the IC50 under setting [2] came out at 39 nM.
As to `Cn1cnc2nc(N)n(Cc3nc([C@@H]4CO[C@@H](c5ccc(Cl)cc5)C4)no3)c2c1=O` [Example 123, 8-amino-7-((3-((3R,5R)-5-(4-chlorophenyl)tetrahydro-furan-3-yl)-1,2,4-oxadiazol-5-yl)methyl)-1-methyl-1,7-dihydro-6H-purin-6-one], the IC50 stood at 126 nM under setting [1] and 17 nM under setting [2].
The like results for `O=c1ccc2c(=O)n(Cc3nc([C@@H]4CO[C@@H](c5ccc(Cl)cc5)C4)no3)cnc2[nH]1` [Example 124, 3-((3-((3R,5R)-5-(4-chlorophenyl)tetrahydro-furan-3-yl)-1,2,4-oxadiazol-5-yl)methyl) pyrido[2,3-d]pyrimidine-4,7(3H,8H)-dione] were, in that order, 12.7 nM and 16 nM.
Regarding `Cn1cnc2nc(N)n(Cc3nc([C@@H]4CO[C@@H](c5cccc(F)c5)C4)no3)c(=O)c21` [Example 125, 2-amino-1-((3-((3R,5R)-5-(3-fluorophenyl)tetrahydrofuran-3-yl)-1,2,4-oxadiazol-5-yl)methyl)-7-methyl-1,7-dihydro-6H-purin-6-one], the half-inhibitory concentration (IC50) amounted to 40.5 nM under setting [1] and 3.1 nM under setting [2].
